Test results as given in patent US5276054A, “Substituted hexahydrobenzopyran derivatives as angiotensin II antagonists” (Merck & Co., Inc., priority 1992, dated 1994).
“And” between values parts separate entries of the source, which are not always exact repeats. Equal entries are not always repeated.

Key:
[1] = molecular target: T1, angiotensin II receptor, site 1 (Oryctolagus cuniculus, UniProt P34976); experiment: Receptor binding assay using rabbit aortae membrane preparation (125I-Sar1 Ile8-angiotensin II), site 1; settings: rabbit aortae membranes, 37° C., 90 minutes
T1 construct: tissue Pel-Freeze Biologicals; host or cells: rabbit aorta, membranes
T1 sequence (P34976 1-359): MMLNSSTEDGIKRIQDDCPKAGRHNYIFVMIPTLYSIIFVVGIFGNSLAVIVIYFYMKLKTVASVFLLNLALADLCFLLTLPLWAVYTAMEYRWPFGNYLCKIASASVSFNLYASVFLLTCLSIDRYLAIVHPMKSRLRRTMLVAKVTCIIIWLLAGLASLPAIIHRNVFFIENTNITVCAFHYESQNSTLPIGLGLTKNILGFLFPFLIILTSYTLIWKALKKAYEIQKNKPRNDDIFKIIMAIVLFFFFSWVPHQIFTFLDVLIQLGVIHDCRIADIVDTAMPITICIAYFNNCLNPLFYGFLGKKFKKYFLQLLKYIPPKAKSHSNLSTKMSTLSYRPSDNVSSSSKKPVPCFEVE
Description: On positive results with rat adrenal gland assay, assays using rabbit aorta may be employed.
Receptor binding assay using rabbit aortae membrane preparation
Three frozen rabbit aortae (obtained from Pel-Freeze Biologicals) were suspended in 5 mM Tris-0.25M Sucrose, pH 7.4 buffer (50 mL) homogenized, and then centifuged. The mixture was filtered through a cheesecloth and the supernatant was centrifuged for 30 minutes at 20,000 rpm at 4° C. The pellet thus obtained was resuspended in 30 mL of 50 mM Tris-5 mM MgCl2 buffer containing 0.2% Bovine Serum Albumin and 0.2 mg/mL Bacitracin and the suspension was used for 100 assay tubes. Samples tested for screening were done in duplicate. To the membrane preparation (0.25 mL) there was added ^125 I-Sar^1 Ile^8 -angiotensin II [obtained from New England Nuclear] ([…]; 20,000 cpm) with or without the test sample and the mixture was incubated at 37° C. for 90 minutes. The mixture was then diluted with ice-cold 50 mM Tris-0.9% NaCl, pH 7.4 (4 mL) and filtered through a glass fiber filter (GF/B Whatman 2.4" diameter). The filter was soaked in scintillation cocktail (10 mL) and counted for radioactivity using Packard 2660 Tricarb liquid scintillation counter. […]

[2] = molecular target: T2, angiotensin II receptor, site 2 (AT-2 receptor) (Rattus norvegicus, UniProt P35351); experiment: Receptor assay using rat adrenal gland preparation (125I-Angiotensin II binding), site 2
T2 construct: Adrenal membranes for the receptor assay were readied first by placing cleaned, whole adrenal glands in microcentrifuge tubes; from tissue; host or cells: rat adrenal glands (whole), membranes
T2 sequence (P35351 1-363): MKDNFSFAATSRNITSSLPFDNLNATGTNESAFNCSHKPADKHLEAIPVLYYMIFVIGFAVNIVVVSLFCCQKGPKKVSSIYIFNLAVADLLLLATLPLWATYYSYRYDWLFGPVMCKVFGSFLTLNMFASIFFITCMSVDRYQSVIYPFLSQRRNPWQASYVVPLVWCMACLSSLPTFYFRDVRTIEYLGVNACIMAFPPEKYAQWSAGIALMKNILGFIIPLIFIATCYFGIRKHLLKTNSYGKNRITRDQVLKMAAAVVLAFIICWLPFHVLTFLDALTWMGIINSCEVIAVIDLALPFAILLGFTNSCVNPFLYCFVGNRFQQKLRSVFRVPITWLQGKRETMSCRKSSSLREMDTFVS
Description: Angiotensin II (AII) is a powerful arterial vasoconstrictor, and it exerts its action by interacting with specific receptors present on cell membranes. The compounds of the present invention are competitive antagonists of AII at receptor sites. The usefulness of compounds as AII antagonists may be determined from the results of certain receptor binding assays. The initial assay is that using rat adrenal glands and the results of this assay are described herein.
Receptor assay using rat adrenal gland preparation
Adrenal membranes for the receptor assay were readied first by placing cleaned, whole adrenal glands in microcentrifuge tubes (20 glands per tube), and freezing and storing under liquid nitrogen. As needed, a microcentrifuge tube of adrenal glands was homogenized in 20 ml 50 mM Tris-HCl pH 7.7 and centrifuged at 20,000 rpm for 15 minutes at 4° C. […]
For the assay, the adrenal membrane preparation in one vial was resuspended in 30 ml of 100 mM Tris-HCl pH 7.4 with 5 mM MgCl2, 0.2% bovine serum albumin and 0.2 mg/ml bacitracin. […] The vials are counted with a gamma counter for one minute and percent inhibition determined from counts/min (CPM) as follows: [formula] The IC50 is determined by plotting percent inhibition v. concentration of compound tested.

IC50 [1]: 25900 nM
IC50 ([2]; rat adrenal membranes, 37° C., 90 minutes, site 2): 1620 to 3240 nM and 1000 to 2000 nM
Compound: CCCCCC1=C(C=O)C2OC(C)(C)C(O)CC23OC3C1=O (stereo not drawn) [Compound A]
antagonist activity at AT-2 receptor sites ([2]; statement in words): antagonist activity at AT-2 receptor sites
